Source: US11753446B2, “Beta-hairpin peptidomimetics” (POLYPHOR AG, priority 2014, dated 2023)
Where a SMILES comes first, the peptide text is derived from it. Bridges are numbered along the chain shown (N, C = ends). [ ]: non-standard residue; d: D form. Tle = CC(C)(C)[C@H](N)C(=O)O; dDab = NCC[C@@H](N)C(=O)O; Orn = NCCC[C@H](N)C(=O)O; Dab = NCC[C@H](N)C(=O)O

How the values were obtained:
[1] = tested on: Acinetobacter baumannii DSM 30008; format: cell-based; conditions: DSM 30008
Method in brief: (§1)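 Peptide activity was tested by NCCLS broth microdilution with slight modifications. Bacteria were diluted in cation-adjusted Mueller-Hinton II broth to approximately 10^6 CFU/mL against a 0.5 McFarland standard. They were then exposed to two-fold serial peptide dilutions in broth containing 0.002% final polysorbate 80.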

[2] = tested on: Escherichia coli ATCC 25922; format: cell-based; conditions: ATCC 25922
Method in brief: as §1

[3] = tested on: Klebsiella pneumoniae ATCC 13883; format: cell-based; conditions: ATCC 13883
Method in brief: as §1

[4] = tested on: human red blood cells (hRBC); test: Hemolysis: hemolytic activity at 100 μg/mL, 1 h at 37° C.; conditions: red cells of human, 1 h
Method in brief: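 Peptides at 100 μg/mL incubated with washed 20% (v/v) human erythrocytes (~0.9×10^9 cells/mL) for 1 h at 37 °C with shaking. Released hemoglobin read at OD 540 nm in supernatant; 0% and 100% lysis from PBS/0.001% acetic acid and 2.5% Triton X-100.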

SMILES	Acinetobacter baumannii DSM 30008 MIC [1] [µg/mL]	Escherichia coli ATCC 25922 MIC [2] [µg/mL]	Klebsiella pneumoniae ATCC 13883 MIC [3] [µg/mL]	Hemolysis at 100 μg/mL [4]; 100 [%]	Hemolysis at 100 μg/mL ([4]; 100 μg/mL) [%]
CC(C)C[C@@H]1NC(=O)[C@H](CCN)NC(=O)[C@H]2CCCN2C(=O)[C@H](C(C)C)NC(=O)[C@H]([C@@H](C)O)NC(=O)[C@H](C(C)C)NC(=O)[C@@H]2CSSC[C@H](NC(=O)[C@H](Cc3ccc(O)cc3)NC(=O)[C@H]([C@@H](C)O)NC1=O)C(=O)N[C@@H](CCN)C(=O)N[C@H](CCN)C(=O)N[C@@H](CCN)C(=O)N[C@@H](Cc1c[nH]c3ccccc13)C(=O)N2 [Example 37, cyclo(-Leu-Thr-Tyr-Cys-Dab-^DDab-Dab-Trp-Cys-Val-Thr-Val-^DPro-Dab-)] (HELM PEPTIDE1{C.[Dab].[NCC[C@@H](N[*:1])C(=O)[*:2]].[Dab].W.C.V.T.V.[dP].[Dab].L.T.Y}$PEPTIDE1,PEPTIDE1,1:R3-6:R3|PEPTIDE1,PEPTIDE1,1:R1-14:R2$$$V2.0)	2	4	2	2	
CC(C)C[C@@H]1NC(=O)[C@H](CCN)NC(=O)[C@@H](CCN)NC(=O)[C@H](CO)NC(=O)[C@H](C)NC(=O)[C@H](Cc2ccc(O)cc2)NC(=O)[C@@H]2CSSC[C@H](NC(=O)[C@H](Cc3ccc(O)cc3)NC(=O)[C@H](CO)NC1=O)C(=O)N[C@@H](CCCN)C(=O)N[C@H](CCN)C(=O)N[C@@H](CCN)C(=O)N[C@@H](Cc1c[nH]c3ccccc13)C(=O)N2 [Example 38, cyclo(-Leu-Ser-Tyr-Cys-Orn-^DDab-Dab-Trp-Cys-Tyr-Ala-Ser-^DDab-Dab-)] (HELM PEPTIDE1{A.S.[NCC[C@@H](N[*:1])C(=O)[*:2]].[Dab].L.S.Y.C.[Orn].[NCC[C@@H](N[*:1])C(=O)[*:2]].[Dab].W.C.Y}$PEPTIDE1,PEPTIDE1,8:R3-13:R3|PEPTIDE1,PEPTIDE1,1:R1-14:R2$$$V2.0)	3	2	2	1	
CC(C)C[C@@H]1NC(=O)[C@H](CCCNC(=N)N)NC(=O)[C@@H](CCN)NC(=O)[C@H](C(C)C)NC(=O)[C@H](CO)NC(=O)[C@H](C(C)C)NC(=O)[C@@H]2CSSC[C@H](NC(=O)[C@H](Cc3ccc(O)cc3)NC(=O)[C@H](CO)NC1=O)C(=O)N[C@@H](CCCN)C(=O)N[C@H](CCN)C(=O)N[C@@H](CCN)C(=O)N[C@@H](Cc1ccccc1)C(=O)N2 [Example 39, cyclo(-Leu-Ser-Tyr-Cys-Orn-^DDab-Dab-Phe-Cys-Val-Ser-Val-^DDab-Arg-)] (HELM PEPTIDE1{C.[Orn].[NCC[C@@H](N[*:1])C(=O)[*:2]].[Dab].F.C.V.S.V.[NCC[C@@H](N[*:1])C(=O)[*:2]].R.L.S.Y}$PEPTIDE1,PEPTIDE1,1:R3-6:R3|PEPTIDE1,PEPTIDE1,1:R1-14:R2$$$V2.0)	0.5	0.5	0.25	4.5	
CC(C)C[C@@H]1NC(=O)[C@H](CCCNC(=N)N)NC(=O)[C@@H](CCN)NC(=O)[C@H](C(C)C)NC(=O)[C@H](C)NC(=O)[C@H](C(C)C)NC(=O)[C@@H]2CSSC[C@H](NC(=O)[C@H](Cc3ccc(O)cc3)NC(=O)[C@H](CO)NC1=O)C(=O)N[C@@H](CCCN)C(=O)NCC(=O)N[C@@H](CCN)C(=O)N[C@@H](Cc1c[nH]c3ccccc13)C(=O)N2 [Example 40, cyclo(-Leu-Ser-Tyr-Cys-Orn-Gly-Dab-Trp-Cys-Val-Ala-Val-^DDab-Arg-)] (HELM PEPTIDE1{A.V.[NCC[C@@H](N[*:1])C(=O)[*:2]].R.L.S.Y.C.[Orn].G.[Dab].W.C.V}$PEPTIDE1,PEPTIDE1,8:R3-13:R3|PEPTIDE1,PEPTIDE1,1:R1-14:R2$$$V2.0)	4	4	2	4	
CC(C)C[C@@H]1NC(=O)[C@@H]2CCCN2C(=O)[C@@H](CCN)NC(=O)[C@H](CO)NC(=O)[C@H](C(C)C)NC(=O)[C@H](C(C)(C)C)NC(=O)[C@@H]2CC(=O)NCC[C@H](NC(=O)[C@H](Cc3ccc(O)cc3)NC(=O)[C@H](Cc3ccc(O)cc3)NC1=O)C(=O)N[C@@H](CCCN)C(=O)N[C@H](CCN)C(=O)N[C@@H](CCN)C(=O)N[C@@H](Cc1c[nH]c3ccccc13)C(=O)N2 [Example 41, cyclo(-Leu-Tyr-Tyr-Dab-Orn-^DDab-Dab-Trp-Asp-tBuGly-Val-Ser-^DDab-Pro-)] (cyclo(D[Tle]VS[dDab]PLYY[Dab][Orn][dDab][Dab]W); lactam 1-10)	2	2	1	2	
CC(C)C[C@@H]1NC(=O)[C@H](CCCNC(=N)N)NC(=O)[C@H]2CCCN2C(=O)[C@H](C(C)C)NC(=O)[C@@H]2CSSC[C@H](NC1=O)C(=O)N[C@@H](Cc1ccc(O)cc1)C(=O)N[C@H]1CSSC[C@H](NC(=O)[C@H](Cc3c[nH]c4ccccc34)NC(=O)[C@H](CCN)NC(=O)[C@H](CCN)NC(=O)[C@H](CCN)NC1=O)C(=O)N[C@@H](Cc1ccc(O)cc1)C(=O)N2 [Example 42, cyclo(-Leu-Cys-Tyr-Cys-Dab-Dab-Dab-Trp-Cys-Tyr-Cys-Val-^DPro-Arg-)] (HELM PEPTIDE1{C.[Dab].[Dab].[Dab].W.C.Y.C.V.[dP].R.L.C.Y}$PEPTIDE1,PEPTIDE1,1:R3-6:R3|PEPTIDE1,PEPTIDE1,8:R3-13:R3|PEPTIDE1,PEPTIDE1,1:R1-14:R2$$$V2.0)	1	4	2		3
CC(C)C[C@@H]1NC(=O)[C@H](CCCNC(=N)N)NC(=O)[C@H]2CCCN2C(=O)[C@H](C(C)C)NC(=O)[C@@H]2CSSC[C@H](NC1=O)C(=O)N[C@@H](Cc1ccc(O)cc1)C(=O)N[C@H]1CSSC[C@H](NC(=O)[C@H](Cc3c[nH]c4ccccc34)NC(=O)[C@H](CCN)NC(=O)[C@@H](CCN)NC(=O)[C@H](CCN)NC1=O)C(=O)N[C@@H](Cc1ccc(O)cc1)C(=O)N2 [Example 43, cyclo(-Leu-Cys-Tyr-Cys-Dab-^DDab-Dab-Trp-Cys-Tyr-Cys-Val-^DPro-Arg-)] (HELM PEPTIDE1{C.[Dab].[NCC[C@@H](N[*:1])C(=O)[*:2]].[Dab].W.C.Y.C.V.[dP].R.L.C.Y}$PEPTIDE1,PEPTIDE1,1:R3-6:R3|PEPTIDE1,PEPTIDE1,8:R3-13:R3|PEPTIDE1,PEPTIDE1,1:R1-14:R2$$$V2.0)	1	4	2		2
